Assays:
NMDA receptor = conditions: C. Carter et al, J. Pharm Exp. Ther. 1988; cited from earlier work
sigma receptor = target: T1, sigma receptor (Cavia porcellus, UniProt Q60492); assay type: binding, guinea pig; conditions: read-out: Ki([3H](+)-Pent)
T1 construct: Crude P2 membrane fractions were prepared from frozen; tissue Pel-Freeze, Rogers, Ark; (frozen guinea pig brains); host or cells: guinea pig brain minus cerebella, crude synaptosomal (P2) membranes
T1 sequence (Q60492 whole entry): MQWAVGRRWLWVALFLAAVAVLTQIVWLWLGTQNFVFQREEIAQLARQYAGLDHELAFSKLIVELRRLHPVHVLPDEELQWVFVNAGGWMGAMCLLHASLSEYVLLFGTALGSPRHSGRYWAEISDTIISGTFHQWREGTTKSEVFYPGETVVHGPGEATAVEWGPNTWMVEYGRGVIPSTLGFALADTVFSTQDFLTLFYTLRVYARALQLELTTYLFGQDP

Compound	NMDA receptor antagonism (NMDA receptor)	Ki (sigma receptor) [nM]
1-(4-chlorophenyl)-2-[1-(4-fluorophenyl)-piperidinyl]ethanol	non-competitive NMDA receptor antagonists	–
Clc1ccc(CCN2CCCC(N3CCCC3)C2)cc1Cl (stereo not drawn) [Compound No. 1, 3-(1-Pyrrolidinyl)-1-[2-(3,4-dichlorophenyl)ethyl]piperidine]	–	3.56 ± 1.56
CC(C(O)c1ccc(O)cc1)N1CCC(Cc2ccccc2)CC1 (stereo not drawn) [ifenprodil]	non-competitive NMDA receptor antagonists	–

— patent publication US5856318A (priority 1997, dated 1999)
